The values below come from US8815946B2, “Inhibition of proliferation and fibrotic response of activated corneal stromal cells” (University of Pittsburgh—of the Commonwealth System of …, priority 2008, dated 2014).

The subject of one assay is GR-1 neutrophils. Put plainly: Mouse corneal wound model, FACS with neutrophil marker GR-1. Format: in vivo, Mus musculus strain C57. Conditions: day 2 post-wounding. The source says:
(§1) A mouse model of corneal wound healing and inflammation induced by lipopolysacharide (LPS) was used to test the effect of EP. Khatari et al., Invest. Opthalmol. Vis. Sci. (2002) 43:2278-2284. Briefly, mice (Mus musculus strain C57, age approx. 2 months) were obtained from Charles River Laboratories in accordance with institutional protocols and divided into the following treatment groups (with 3 samples in each group):
(§2) Prior to wounding, all mice were anesthetized with an intraperitoneal injection of 50 mg/kg ketamine with 5 mg/kg xylazine. Topical anesthesia was further achieved with an additional 1 drop of 0.5% proparacaine per eye. Once the animal was sufficiently anesthetized, a corneal wound was constructed in each eye using a sterile 26-gauge needle that penetrated the epithelium and the superficial layers of the stroma. This linear scratch extended from the medial to lateral canthus (FIG. 12). 10 μg of the bacterial super-antigen LPS (Pseudomonas aeruginosa lipopolysaccharide, Sigma) was applied to the wound using a 10 μl pipette and allowed to penetrate the cornea for 5 minutes. Addition of bacterial endotoxin ensured a robust inflammatory response.
The wound was then washed with phosphate buffered saline (PBS/non-pyrogenic dH2O). […] The delivery and concentration of EP was determined according to Devamanoharan et al. (1999); 200(1-2):103-09. […]

For the next assay, the system named is cornea. Put plainly: Mouse corneal wound healing and LPS inflammation model, confocal microscopy of corneal thickness and morphology. In kind it is in vivo, Mus musculus strain C57.
From the text: as §1, §2
The wound was then washed with phosphate buffered saline (PBS/non-pyrogenic dH2O). Following the wash, the EP treatment groups received a 10 μl drop of 5% EP in PBS buffered to physiological pH with HEPES while the control group received PBS alone. Drops were applied to the corneal wound using a pipette and the mice were held by hand in such a way as to retain the drops on the eye for approximately 2 minutes. The delivery and concentration of EP was determined according to Devamanoharan et al. (1999); 200(1-2):103-09. […] Considering this quick absorption with the elimination half-life of EP, which is approximately 90 minutes, EP (500 mM) was applied every 90 minutes over the span of 12 hours during each day, followed by 12 hours of treatment overnight.
Animals were sacrificed and eyes harvested for analysis at 1 and 2 days post-wounding. After sacrificing, but prior to harvesting, eyes were imaged using the NIDEK CONFOSCAN 3® confocal microscope to analyze the morphology of the intact cornea. The images were later reconstructed into three-dimensional images in order to observe gross morphology, measure corneal thickness and light scattering which indicate edema and hypercellularity respectively.

The next assay deals with fibronectin. Put plainly: Immunocytochemical analysis of fibronectin expression, human stromal cells. As to conditions: human corneal cells treated with TGF-β1. Format: cell-based. The method, then: FIGS. 6A-6B. Immunocytochemical analysis of fibronectin expression. Normal human stromal cells (FIG. 6A) or rabbit corneal stromal cells (FIG. 6B) in P2 growing in DMEM/F12 with 10% FBS were subcultured into 35 mm tissue culture dishes. After 24 hrs of incubation, the media were replaced with DMEM/F12 medium containing 1% FBS and TGF-β1 with or without (control) 10 mM EP and incubated for four days (media were changed every 24 hours). The cells were fixed and double stained for fibronectin (green) and phalloidin (red) using an indirect fluorescence technique as described herein.
For immunocytochemical analyses, the cells were cultured on glass cover slips or tissue culture dishes. Cells were rinsed with phosphate-buffered saline (PBS), fixed with paraformaldehyde-lysine-periodate and permeabilized with PIPES buffer containing 0.2% Triton X-100, as described previously (Guerriero et al., Invest. Opthalmol. Vis. Sci. 2007; 48: 627-635). Fixed and permeabilized cells were reacted with 10% heat-inactivated goat serum in PBS, pH 7.5, for 45 minutes to block the nonspecific binding of the secondary antibody, rinsed with PBS, and then treated with the primary and secondary antibodies as described previously (Guerriero et al. Invest. Opthalmol. Vis. Sci. 2007; 48: 627-635). Primary antibodies included monoclonal rat anti-α smooth muscle actin (SMA) and anti-fibronectin. […]

The subject of another assay is Ki67. Put plainly: Ki67 staining of activated rabbit corneal keratocytes. Format: cell-based. Conditions: bFGF (40 ng/ml)+HS (5 μg/ml), 15 mM EP, two days. As to the method:
FIGS. 18A-18B. Rabbit corneal keratocytes were activated with bFGF (40 ng/ml)+HS (5 μg/ml) without EP (FIG. 18A) or with 15 mM EP (FIG. 18B) and after two days the cells were triple stained with anti-Ki67 antibodies (yellow), phalloidin (red, actin filaments) and DAPI (blue, nucleus).
As described in Example 1, corneal stromal cells were isolated from rabbit corneas and cultured using the same procedures. The keratocytes in serum free media were treated with b-FGF (40 ng/ml)+HS (5 μg/ml) with or without 15 mM EP or 1, 2.5 or 5 mM following EP derivatives: 2-oxopropionic acid 3-methoxyphenyl ester, 2-oxopropionic acid 2-ethoxyethyl ester, 2-oxopropionic acid 2-chloroethyl ester, 2-oxopropionic acid isopropyl ester, 2-oxopropionic acid butyl ester, 2-oxopropionic acid p-tolyl ester, 2-oxopropionic acid tert-butyl ester. Two days following the treatments, the cells were fixed and stained for Ki67 (a nuclear antigen expressed during the G1/S or S phase of the cell cycle) as described supra. The relative levels of the expression of specific proteins were analyzed by Western blot analyses of the cell lysates as described supra.

Setting [1] is: 1 day post-wounding, topical 5% EP every 90 minutes.

Consider `CCOC(=O)C(C)=O` [ethyl pyruvate], for which, in the assay with GR-1 neutrophils, the “neutrophils (GR-1) by FACS” value worked out at 61.00±42.53. In addition, the “light scattering within the stromal layer (qualitative)” value in the assay on cornea (1 day post-wounding) was “dark and quiet stroma”. Also, in the assay on cornea (setting [1]), the stromal thickness is recorded as 89-100 μm and the total corneal thickness was 194-207 μm. Further, in the assay on cornea (2 days post-wounding), the “corneal morphology / light scattering (qualitative)” value is given as “normal in morphology”, the stromal thickness is listed as 80-85 μm and the total corneal thickness is 142-154 μm. In addition, the “fibronectin deposition in the matrix (immunocytochemical)” value with fibronectin is listed as “concentration dependent downregulation”. Moreover, in the assay with Ki67, the “Ki67 positive cells (staining, qualitative)” value is “only a few Ki67 positive cells”.
